{"source": "paper PMC10794144", "about": "“A novel antibiotic class targeting the lipopolysaccharide transporter” (Nature, 2024)", "key": {"[1]": {"test_system": "A. baumannii"}, "[2]": {"test_system": "A. baylyi ADP1 (ATCC 33305)", "test": "MIC of constructed lptF mutants in LB, OD600", "assay_type": "cell-based, Acinetobacter baylyi", "procedure": "MIC determinations were performed using the broth microdilution method and in line with CLSI guidelines M07 and M100 (refs. [37],[38]). Bacterial inocula were prepared by diluting a 0.5 McFarland suspension in CAMHB or lysogeny broth (LB) specifically for A. baylyi isolates. […] MIC values of all of the tested antibiotics were read as the lowest compound concentration inhibiting bacterial growth by naked eye or beyond which the OD600 ceased to decrease.\nCulture, genetic manipulation and MIC measurements of A. baylyi ADP1 were conducted according to previously reported procedures[56],[57]."}, "[3]": {"test_system": "A. baumannii ACC01073", "test": "Neutropaenic mouse lung infection (pneumonia) model", "assay_type": "in vivo", "conditions": "for CFU/lungs, average / Log CFU/lungs, average (bacterial load): n = 6", "procedure": "An intramuscular inoculation of a bacterial suspension of approximately 10^6 CFU per thigh was used to induce the infection. Treatment started 2 h after infection. […] Thigh bacterial burden was determined after 24 h of treatment. In the pneumonia model, an intratracheal inoculation of approximately 10^7 CFU per lung was used to induce the infection. Treatment started 2 h after infection. […] Lung bacterial burden was determined after 24 h treatment. Standard of care antibiotic was tested at a single dose in both infection models. GraphPad Prism 8 was used for graphical presentation and to analyse data."}}, "note": "Read-outs that look alike come from different tables or passages of the source.", "data": [{"smiles": "CN1C(=O)[C@H](CCCCN)NC(=O)[C@H](CCCN)NCc2cccnc2Sc2cccc(-c3ccc(C(=O)O)cc3)c2CNC(=O)[C@@H]1Cc1c[nH]c2ccccc12", "note": "[zosurabalpin]", "values": [{"measurement": "MIC_value", "setting": "[1]; ROB08705 clone 2D1, run ABR05_3280_MHB, evolved in MHB", "value": 8, "unit": "µM"}, {"measurement": "MIC_value", "setting": "[1]; ROB08705 clone 3B1, run ABR05_3280_HS, evolved in HS_MHB", "value": 4, "unit": "µM"}, {"measurement": "MIC_value", "setting": "[1]; ROB08705 clone 3B1, run ABR05_3280_MHB, evolved in MHB", "value": "8 to 16", "unit": "µM"}, {"measurement": "MIC_value", "setting": "[1]; ROB08705 clone 3B3, run ABR05_3280_HS, evolved in HS_MHB", "value": "4 to 8", "unit": "µM"}, {"measurement": "MIC_value", "setting": "[1]; ROB08705 clone 3B4, run ABR05_3280_HS, evolved in HS_MHB", "value": 16, "unit": "µM"}, {"measurement": "MIC_value", "setting": "[1]; ROB08705 clone 3B5, run ABR05_3280_HS, evolved in HS_MHB", "value": 2, "unit": "µM"}, {"measurement": "MIC_value", "setting": "[1]; ROB08705 clone 3B6, run ABR05_3280_HS, evolved in HS_MHB", "value": 1, "unit": "µM"}, {"measurement": "MIC_value", "setting": "[1]; ROB08705 clone 4B1, run ABR05_3280_HS, evolved in HS_MHB", "value": 128, "unit": "µM"}, {"measurement": "MIC_value", "setting": "[1]; ROB08705 clone 4B2, run ABR05_3280_HS, evolved in HS_MHB", "value": 4, "unit": "µM"}, {"measurement": "MIC_value", "setting": "[1]; ROB08705 clone 4D1, run ABR05_3280_MHB, evolved in MHB", "value": 4, "unit": "µM"}, {"measurement": "MIC_value", "setting": "[1]; ROB08705 clone 5C2, run ABR05_3280_HS, evolved in HS_MHB", "value": 4, "unit": "µM"}, {"measurement": "MIC_value", "setting": "[1]; ROB08705 clone 5C3, run ABR05_3280_HS, evolved in HS_MHB", "value": 32, "unit": "µM"}, {"measurement": "MIC_value", "setting": "[1]; ROB08705 clone 5C5, run ABR05_3280_HS, evolved in HS_MHB", "value": 8, "unit": "µM"}, {"measurement": "MIC_value", "setting": "[1]; ROB08706 clone 1D1, run ABR06_3280_MHB, evolved in MHB", "value": "32 to 64", "unit": "µM"}, {"measurement": "MIC_value", "setting": "[1]; ROB08706 clone 1E1, run ABR06_3280_HS, evolved in HS_MHB", "value": "4 to 8", "unit": "µM"}, {"measurement": "MIC_value", "setting": "[1]; ROB08706 clone 1E2, run ABR06_3280_HS, evolved in HS_MHB", "value": 64, "unit": "µM"}, {"measurement": "MIC_value", "setting": "[1]; ROB08706 clone 2C1, run ABR06_3280_MHB, evolved in MHB", "value": 32, "unit": "µM"}, {"measurement": "MIC_value", "setting": "[1]; ROB08706 clone 2C3, run ABR06_3280_MHB, evolved in MHB", "value": 4, "unit": "µM"}, {"measurement": "MIC_value", "setting": "[1]; ROB08706 clone 2D1, run ABR06_3280_HS, evolved in HS_MHB", "value": 2, "unit": "µM"}, {"measurement": "MIC_value", "setting": "[1]; ROB08706 clone 2D5, run ABR06_3280_HS, evolved in HS_MHB", "value": 4, "unit": "µM"}, {"measurement": "MIC_value", "setting": "[1]; ROB08706 clone 2D6, run ABR06_3280_HS, evolved in HS_MHB", "value": 4, "unit": "µM"}, {"measurement": "MIC_value", "setting": "[1]; ROB08706 clone 2D7, run ABR06_3280_HS, evolved in HS_MHB", "value": 2, "unit": "µM"}, {"measurement": "MIC_value", "setting": "[1]; ROB08706 clone 2E1, run ABR06_3280_HS, evolved in HS_MHB", "value": 32, "unit": "µM"}, {"measurement": "MIC_value", "setting": "[1]; ROB08706 clone 3B3, run ABR06_3280_MHB, evolved in MHB", "value": 4, "unit": "µM"}, {"measurement": "MIC_value", "setting": "[1]; ROB08706 clone 3E1, run ABR06_3280_HS, evolved in HS_MHB", "value": 4, "unit": "µM"}, {"measurement": "MIC_value", "setting": "[1]; ROB08706 clone 4D1, run ABR06_3280_MHB, evolved in MHB", "value": "8 to 16", "unit": "µM"}, {"measurement": "MIC_value", "setting": "[1]; ROB08706 clone 4D2, run ABR06_3280_MHB, evolved in MHB", "value": "4 to 8", "unit": "µM"}, {"measurement": "MIC_value", "setting": "[1]; ROB08706 clone 4E1, run ABR06_3280_HS, evolved in HS_MHB", "value": 4, "unit": "µM"}, {"measurement": "MIC_value", "setting": "[1]; ROB08706 clone 5C1, run ABR06_3280_MHB, evolved in MHB", "value": 4, "unit": "µM"}, {"measurement": "MIC_value", "setting": "[1]; ROB08706 clone 5D3, run ABR06_3280_MHB, evolved in MHB", "value": "4 to 8", "unit": "µM"}, {"measurement": "Fold MIC increase", "setting": "[2]; constructed LptF (E249K&I317N)", "value": "> 700"}, {"measurement": "Fold MIC increase", "setting": "[2]; constructed LptF E249K", "value": 242}, {"measurement": "Fold MIC increase", "setting": "[2]; constructed LptF I317N", "value": 128}, {"measurement": "Fold MIC increase", "setting": "[2]; constructed LptF K320T", "value": 20}, {"measurement": "Fold MIC increase", "setting": "[2]; constructed LptF R322C", "value": 9}, {"measurement": "ΔLog CFU/lungs vs A/0h", "setting": "[3]; 6 mg/kg/day s.c. q6h, 24 h", "value": 1.37}, {"measurement": "CFU/lungs, average", "setting": "[3]; 6 mg/kg/day s.c. q6h, 24 h", "value": "1.26E+09"}, {"measurement": "Log CFU/lungs, average (bacterial load)", "setting": "[3]; 6 mg/kg/day s.c. q6h, 24 h", "value": 9.06}, {"measurement": "ΔLog CFU/lungs vs A/0h", "setting": "[3]; 20 mg/kg/day q6h", "value": 1.47}, {"measurement": "CFU/lungs, average", "setting": "[3]; 20 mg/kg/day q6h", "value": "1.49E+09"}, {"measurement": "Log CFU/lungs, average (bacterial load)", "setting": "[3]; 20 mg/kg/day q6h", "value": 9.16}, {"measurement": "ΔLog CFU/lungs vs A/0h", "setting": "[3]; 60 mg/kg/day q6h", "value": 1.13}, {"measurement": "CFU/lungs, average", "setting": "[3]; 60 mg/kg/day q6h", "value": "8.46E+08"}, {"measurement": "Log CFU/lungs, average (bacterial load)", "setting": "[3]; 60 mg/kg/day q6h", "value": 8.82}, {"measurement": "ΔLog CFU/lungs vs A/0h", "setting": "[3]; 100 mg/kg/day q6h", "value": -0.05}, {"measurement": "CFU/lungs, average", "setting": "[3]; 100 mg/kg/day q6h", "value": "1.38E+08"}, {"measurement": "Log CFU/lungs, average (bacterial load)", "setting": "[3]; 100 mg/kg/day q6h", "value": 7.64}, {"measurement": "ΔLog CFU/lungs vs A/0h", "setting": "[3]; 160 mg/kg/day q6h", "value": -1.08}, {"measurement": "CFU/lungs, average", "setting": "[3]; 160 mg/kg/day q6h", "value": "9.40E+06"}, {"measurement": "Log CFU/lungs, average (bacterial load)", "setting": "[3]; 160 mg/kg/day q6h", "value": 6.61}, {"measurement": "ΔLog CFU/lungs vs A/0h", "setting": "[3]; 240 mg/kg/day q6h", "value": -2.52}, {"measurement": "CFU/lungs, average", "setting": "[3]; 240 mg/kg/day q6h", "value": "4.14E+05"}, {"measurement": "Log CFU/lungs, average (bacterial load)", "setting": "[3]; 240 mg/kg/day q6h", "value": 5.17}, {"measurement": "Reduction in CFUs in lungs", "setting": "[3]; 360 mg per kg per day", "value": "> 5", "unit": "log"}, {"measurement": "ΔLog CFU/lungs vs A/0h", "setting": "[3]; 360 mg/kg/day q6h", "value": -4.81}, {"measurement": "CFU/lungs, average", "setting": "[3]; 360 mg/kg/day q6h", "value": "9.88E+02"}, {"measurement": "Log CFU/lungs, average (bacterial load)", "setting": "[3]; 360 mg/kg/day q6h", "value": 2.88}]}]}
